Results from US6355799B1, “Substituted benzene compounds, process for their preparation, and herbicidal and defoliant compositions containing them” (ISK Americas Incorporated, priority 1997, dated 2002).

Tests used:
Type in all cases: in vivo
[1] = system: sicklepod (Cassia obtusifolia, CASOB); test: Pre-emerge test, greenhouse herbicide activity screening; settings: pre-emerge, 14 days after application, rating scale 0-100
Outline: (§1)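 Herbicidal damage is scored 0 (none) to 100 (complete plant death) two weeks after a simulated field spray. Rates span 15–1000 g ai/ha, delivered in acetone at 187 l/ha. For post-emergence treatments, plants have 2–3 leaves and the spray carries 0.25% v/v non-ionic surfactant.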

[2] = system: velvetleaf (Abutilon theophrasti, ABUTH); test: as above; settings: pre-emerge, 14 days after application, rating scale 0-100
Outline: as §1

[3] = system: green foxtail (Setaria viridis, SETVI); test: as above; settings: pre-emerge, 14 days after application, rating scale 0-100
Outline: as §1

[4] = system: johnsongrass (Sorghum halepense, SORHA); test: as above; settings: pre-emerge, 14 days after application, rating scale 0-100
Outline: as §1

[5] = system: large crabgrass (Digitaria sanguinalis, DIGSA); test: as above; settings: pre-emerge, 14 days after application, rating scale 0-100
Outline: as §1

[6] = system: ivyleaf morningglory (Ipomoea hederacea, IPOHE); test: as above; settings: pre-emerge, 14 days after application, rating scale 0-100
Outline: as §1

[7] = system: lambsquarters (Chenopodium album, CHEAL); test: as above; settings: pre-emerge, 14 days after application, rating scale 0-100
Outline: as §1

[8] = system: barnyardgrass (Echinochloa crus-galli, ECHCG); test: as above; settings: pre-emerge, 14 days after application, rating scale 0-100
Outline: as §1

[9] = system: redroot pigweed (Amaranthus retroflexus, AMARE); test: as above; settings: pre-emerge, 14 days after application, rating scale 0-100
Outline: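 Compounds in acetone were track-sprayed at 187 l/ha, 15–1000 g ai/ha, onto sandy loam pots. Pre-emerge seeds were sown one day before spraying, with surface watering afterwards. Post-emerge plants were at the 2–3 leaf stage and sprayed with 0.25% v/v non-ionic surfactant. Injury was rated 0–100 at 14 days.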

[10] = system: sicklepod (Cassia obtusifolia, CASOB); test: Post-emerge test, greenhouse herbicide activity screening; settings: post-emerge, 14 days after application, rating scale 0-100
Outline: (§2)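 Visual ratings on a 0-100 scale (0 no damage, 100 all plants dead) were taken at 14 days after treatment. Rates of 15-1000 g ai/ha in acetone, 187 l/ha, were sprayed onto soil one day after planting (pre-emerge) or onto 2-3 leaf plants with 0.25% v/v surfactant (post-emerge).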

[11] = system: velvetleaf (Abutilon theophrasti, ABUTH); test: as above; settings: post-emerge, 14 days after application, rating scale 0-100
Outline: as §2

[12] = system: green foxtail (Setaria viridis, SETVI); test: as above; settings: post-emerge, 14 days after application, rating scale 0-100
Outline: as §2

[13] = system: johnsongrass (Sorghum halepense, SORHA); test: as above; settings: post-emerge, 14 days after application, rating scale 0-100
Outline: as §2

[14] = system: large crabgrass (Digitaria sanguinalis, DIGSA); test: as above; settings: post-emerge, 14 days after application, rating scale 0-100
Outline: as §2

[15] = system: ivyleaf morningglory (Ipomoea hederacea, IPOHE); test: as above; settings: post-emerge, 14 days after application, rating scale 0-100
Outline: as §2

[16] = system: lambsquarters (Chenopodium album, CHEAL); test: as above; settings: post-emerge, 14 days after application, rating scale 0-100
Outline: as §2

[17] = system: barnyardgrass (Echinochloa crus-galli, ECHCG); test: as above; settings: post-emerge, 14 days after application, rating scale 0-100
Outline: as §2

[18] = system: redroot pigweed (Amaranthus retroflexus, AMARE); test: as above; settings: post-emerge, 14 days after application
Outline: as §2

[19] = system: field corn (Zea mays L., var. Dekalb 535, CORN); test: Post-emerge test, crop safety; settings: post-emerge, 14 days after application, rating scale 0-100
Outline: as §1

[20] = system: upland rice (Oryza sp., var. Tebonnet, RICE); test: Post-emerge test, crop safety; settings: post-emerge, 14 days after application, rating scale 0-100
Outline: as §1

[21] = system: field corn (Zea mays L., var. Dekalb 535, CORN); test: Pre-emerge test, crop safety; settings: pre-emerge, 14 days after application, rating scale 0-100
Outline: as §1

[22] = system: upland rice (Oryza sp., var. Tebonnet, RICE); test: Pre-emerge test, crop safety; settings: pre-emerge, 14 days after application, rating scale 0-100
Outline: as §1

COc1c(Cl)cc(F)c(-n2c(=O)cc(C(F)(F)F)n(C)c2=O)c1NN=C(C(F)(F)F)C(F)(F)F [15-21]
40: Post-emerge Herbicidal Activity SORHA (phytotoxicity rating) ([13]; 63 g ai/ha)
60: Post-emerge Herbicidal Activity ECHCG (phytotoxicity rating) ([17]; 63 g ai/ha)
50: Post-emerge Herbicidal Activity SETVI (phytotoxicity rating) ([12]; 63 g ai/ha)
90: Post-emerge Herbicidal Activity SETVI (phytotoxicity rating) ([12]; 250 g ai/ha) | Post-emerge Herbicidal Activity CORN (crop damage rating) ([19]; 250 g ai/ha) | Post-emerge Herbicidal Activity RICE (crop damage rating) ([20]; 250 g ai/ha)
80: Post-emerge Herbicidal Activity RICE (crop damage rating) ([20]; 63 g ai/ha)
95: Post-emerge Herbicidal Activity SORHA (phytotoxicity rating) ([13]; 250 g ai/ha) | Post-emerge Herbicidal Activity DIGSA (phytotoxicity rating) ([14]; 250 g ai/ha) | Post-emerge Herbicidal Activity AMARE (phytotoxicity rating) ([18]; 63 g ai/ha, rating scale 0-100 (0 no damage, 100 complete death)) | phytotoxicity rating CORN ([21]; 63 g ai/ha)
30: Post-emerge Herbicidal Activity DIGSA (phytotoxicity rating) ([14]; 63 g ai/ha) | Post-emerge Herbicidal Activity CORN (crop damage rating) ([19]; 63 g ai/ha)
100: phytotoxicity rating CASOB ([1]; 63 g ai/ha) | phytotoxicity rating CASOB ([1]; 250 g ai/ha) | phytotoxicity rating ABUTH ([2]; 63 g ai/ha) | phytotoxicity rating ABUTH ([2]; 250 g ai/ha) | phytotoxicity rating SETVI ([3]; 63 g ai/ha) | phytotoxicity rating SETVI ([3]; 250 g ai/ha) | phytotoxicity rating SORHA ([4]; 63 g ai/ha) | phytotoxicity rating SORHA ([4]; 250 g ai/ha) | phytotoxicity rating DIGSA ([5]; 63 g ai/ha) | phytotoxicity rating DIGSA ([5]; 250 g ai/ha) | phytotoxicity rating IPOHE ([6]; 63 g ai/ha) | phytotoxicity rating IPOHE ([6]; 250 g ai/ha) | phytotoxicity rating CHEAL ([7]; 63 g ai/ha) | phytotoxicity rating CHEAL ([7]; 250 g ai/ha) | phytotoxicity rating ECHCG ([8]; 250 g ai/ha) | phytotoxicity rating AMARE ([9]; 63 g ai/ha) | phytotoxicity rating AMARE ([9]; 250 g ai/ha) | Post-emerge Herbicidal Activity CASOB (phytotoxicity rating) ([10]; 63 g ai/ha) | Post-emerge Herbicidal Activity CASOB (phytotoxicity rating) ([10]; 250 g ai/ha) | Post-emerge Herbicidal Activity ABUTH (phytotoxicity rating) ([11]; 63 g ai/ha) | Post-emerge Herbicidal Activity ABUTH (phytotoxicity rating) ([11]; 250 g ai/ha) | Post-emerge Herbicidal Activity IPOHE (phytotoxicity rating) ([15]; 63 g ai/ha) | Post-emerge Herbicidal Activity IPOHE (phytotoxicity rating) ([15]; 250 g ai/ha) | Post-emerge Herbicidal Activity CHEAL (phytotoxicity rating) ([16]; 63 g ai/ha) | Post-emerge Herbicidal Activity CHEAL (phytotoxicity rating) ([16]; 250 g ai/ha) | Post-emerge Herbicidal Activity ECHCG (phytotoxicity rating) ([17]; 250 g ai/ha) | Post-emerge Herbicidal Activity AMARE (phytotoxicity rating) ([18]; 250 g ai/ha, rating scale 0-100) | phytotoxicity rating CORN ([21]; 250 g ai/ha) | phytotoxicity rating RICE ([22]; 250 g ai/ha)
99: phytotoxicity rating ECHCG ([8]; 63 g ai/ha) | phytotoxicity rating RICE ([22]; 63 g ai/ha)
